This is an account of results in ChEMBL document CHEMBL1142674, “Amino acid ester prodrugs of the antiviral agent 2-bromo-5,6-dichloro-1-(beta-D-ribofuranosyl)benzimidazole as potential substrates of hPEPT1 transporter” (J Med Chem, 2005).

Holding throughout (format): cell-based
In test [1] the target is T1, Solute carrier family 15 member 1 (Homo sapiens, UniProt P46059).
T1 sequence (P46059 whole entry): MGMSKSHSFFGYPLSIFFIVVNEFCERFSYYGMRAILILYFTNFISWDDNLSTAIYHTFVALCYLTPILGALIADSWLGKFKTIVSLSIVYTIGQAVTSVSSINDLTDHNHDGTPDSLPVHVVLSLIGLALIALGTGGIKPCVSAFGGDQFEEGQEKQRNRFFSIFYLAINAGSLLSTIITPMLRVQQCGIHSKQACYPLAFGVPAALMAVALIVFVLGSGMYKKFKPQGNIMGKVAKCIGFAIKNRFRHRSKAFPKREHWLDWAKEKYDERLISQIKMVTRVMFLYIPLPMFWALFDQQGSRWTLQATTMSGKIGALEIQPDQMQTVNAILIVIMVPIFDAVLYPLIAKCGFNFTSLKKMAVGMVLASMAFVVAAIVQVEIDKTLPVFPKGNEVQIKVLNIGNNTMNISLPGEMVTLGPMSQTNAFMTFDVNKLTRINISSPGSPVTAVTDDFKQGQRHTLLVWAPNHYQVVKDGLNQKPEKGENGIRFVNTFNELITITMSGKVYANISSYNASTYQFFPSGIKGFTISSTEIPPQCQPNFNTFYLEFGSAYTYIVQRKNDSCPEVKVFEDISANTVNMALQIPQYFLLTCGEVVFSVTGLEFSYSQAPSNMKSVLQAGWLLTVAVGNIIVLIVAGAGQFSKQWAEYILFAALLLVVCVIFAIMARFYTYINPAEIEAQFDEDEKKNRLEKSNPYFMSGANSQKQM
The experiment in a line: Inhibitory concentration against [3H]glycylsarcosine uptake in HeLa cells expressing human Intestinal peptide transporter PepT1.

In test [2] the target is T2, Solute carrier family 15 member 1 (Homo sapiens) (UniProt P46059).
T2 sequence (whole entry): T1 sequence (P46059 whole entry)
The test is described as follows: Relative inhibition of [3H]glycylsarcosine uptake in HeLa cells expressing human Intestinal peptide transporter PepT1 compared to BDCRB.

In test [3] the target is T2, Solute carrier family 15 member 1 (Homo sapiens). The test is described as follows: Relative inhibition of [3H]glycylsarcosine uptake in HeLa cells expressing human Intestinal peptide transporter PepT1 compared to BDCRB; na=Not applicable.

The source made the active and inactive calls. No cut-off for these calls is given here.

As for `O=C(OC[C@H]1OC(n2c(Br)nc3cc(Cl)c(Cl)cc32)[C@H](O)[C@@H]1O)[C@@H]1CCCN1` (stereo partly drawn), half-maximal inhibition in test [1] (IC50) was put at 537 µM. The Ratio in test [2] is 0.8.

On to `NCCCC[C@H](N)C(=O)OC[C@H]1OC(n2c(Br)nc3cc(Cl)c(Cl)cc32)[C@H](O)[C@@H]1O` (stereo partly drawn), for which the concentration for half-maximal inhibition (IC50) – broadly, the concentration that gives 50% inhibition – in test [1] turned out to be 477 µM. Also, in test [2], the Ratio was found to be 0.9.

The molecule `CC(C)[C@@H](N)C(=O)OC[C@H]1OC(n2c(Br)nc3cc(Cl)c(Cl)cc32)[C@H](O)[C@@H]1O` (stereo partly drawn) returned a half-maximal inhibitory concentration (IC50) in test [1] of 342 µM. For the same molecule, the Ratio in test [2] is 1.3.

Molecule `N[C@@H](CC(=O)O)C(=O)OC[C@H]1OC(n2c(Br)nc3cc(Cl)c(Cl)cc32)[C@H](O)[C@@H]1O` (stereo partly drawn) showed an IC50 in test [1] of 260 µM. Further, in test [2], the Ratio worked out at 1.7.

`OC[C@H]1O[C@H](n2c(Br)nc3cc(Cl)c(Cl)cc32)[C@@H](O)[C@H]1O`: in test [1], the 50% inhibitory concentration (IC50) stood at 447 µM. In test [3], the Ratio result was “inactive”.

For `CC(C)[C@H](N)C(=O)OC[C@H]1OC(n2c(Br)nc3cc(Cl)c(Cl)cc32)[C@H](O)[C@@H]1O` (stereo partly drawn), the IC50 in test [1] was determined as 166 µM. Besides, the Ratio in test [2] worked out at 2.7.

Take `CCOc1ccc(C[C@H](N)C(=O)OC[C@H]2OC(n3c(Br)nc4cc(Cl)c(Cl)cc43)[C@H](O)[C@@H]2O)cc1` (stereo partly drawn): inhibition in test [1] was half-maximal at 96 µM (IC50). Moreover, the Ratio in test [2] is 4.7.

`COc1ccc(C[C@H](N)C(=O)OC[C@H]2OC(n3c(Br)nc4cc(Cl)c(Cl)cc43)[C@H](O)[C@@H]2O)cc1` (stereo partly drawn) had an IC50 in test [1] of 300 µM. Moreover, the Ratio in test [2] amounted to 1.5.

For the molecule `CC(C)[C@H](N)C(=O)OCCOCn1cnc2c(=O)nc(N)[nH]c21`, in test [3], the Ratio entry was “inactive”.

`N[C@@H](Cc1ccc(Cl)cc1)C(=O)OC[C@H]1OC(n2c(Br)nc3cc(Cl)c(Cl)cc32)[C@H](O)[C@@H]1O` (stereo partly drawn) came in with an IC50 in test [1] of 142 µM. Besides, in test [2], the Ratio is 3.1.

Molecule `CC(C)[C@H](N)C(=O)OCCOCn1cnc2c(=O)[nH]c(N)nc21` [VALACYCLOVIR] registered an IC50 in test [1] of 431 µM.

In test [1], `CCC(C)[C@H](N)C(=O)OC[C@H]1O[C@@H](n2c(Br)nc3cc(Cl)c(Cl)cc32)[C@H](O)[C@@H]1O` (stereo partly drawn) gave an IC50 of 121 µM. In test [2], the Ratio came out at 3.7.

The molecule `N[C@H](Cc1ccccc1)C(=O)OC[C@H]1OC(n2c(Br)nc3cc(Cl)c(Cl)cc32)[C@H](O)[C@@H]1O` (stereo partly drawn) registered an IC50 in test [1] of 282 µM. Besides, the Ratio in test [2] came out at 1.6.

On to `N[C@H](CC(=O)O)C(=O)OC[C@H]1OC(n2c(Br)nc3cc(Cl)c(Cl)cc32)[C@H](O)[C@@H]1O` (stereo partly drawn), for which the IC50 in test [1] came to 421 µM. Besides, the Ratio in test [2] is 1.1.

`N[C@@H](Cc1ccccc1)C(=O)OC[C@H]1OC(n2c(Br)nc3cc(Cl)c(Cl)cc32)[C@H](O)[C@@H]1O` (stereo partly drawn): half-maximal inhibition in test [1] (IC50) was put at 218 µM. Besides, the Ratio in test [2] was 2.1.
